Source: patent publication US9987256B2, “CFTR corrector for the treatment of genetic disorders affecting striated muscle” (UNIVERSITA' DEGLI STUDI DI PADOVA, priority 2012, dated 2018)
Substitutions are numbered along the chain they refer to.

What was measured:
[1] = target: T1, D97G mutant of alpha-sarcoglycan (Homo sapiens, UniProt Q16586, D97G); test: Western blot rescue of D97G mutant of alpha-sarcoglycan in HEK293 cell model; assay type: cell-based; conditions: FIG. 7; HEK293, 24 hours; E 10 μM, H 15 μM, I 10 μM, Q 10 μM, F 10 μM, R 5 μM, S 15 μM, T 15 μM, A 2 μM; relative to wild type
T1 construct: expressed in transfected cells; host or cells: HEK293
T1 sequence (Q16586 24-387 D97G): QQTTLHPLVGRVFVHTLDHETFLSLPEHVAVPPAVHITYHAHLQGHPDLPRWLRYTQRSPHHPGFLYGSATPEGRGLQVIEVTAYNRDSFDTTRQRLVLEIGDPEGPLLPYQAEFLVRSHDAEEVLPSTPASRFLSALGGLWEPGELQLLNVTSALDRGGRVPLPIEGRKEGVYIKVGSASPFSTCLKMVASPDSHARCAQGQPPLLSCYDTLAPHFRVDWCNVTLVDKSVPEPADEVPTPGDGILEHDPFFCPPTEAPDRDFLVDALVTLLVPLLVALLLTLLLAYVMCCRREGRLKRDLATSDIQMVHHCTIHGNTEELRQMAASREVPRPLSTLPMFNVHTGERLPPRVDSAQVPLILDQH
Method: (§1) HEK293 cells expressing different α-SG mutants have been treated with the Compounds A, B, C, D, E, F, H, I, Q, R, S and T according to protocols developed in CF studies [Loo and Clarke 2011; Becq et al 2011, Pedemonte et al 2005; Wang et al 2006]. Concentration and time-dependent recovery of treated mutants have been evaluated by Western blotting. The proteasome inhibitor MG132, at the concentration of 10 μM, or DMSO at 1‰ concentration, have been used as positive and negative control, respectively.
In FIG. 7 is shown the content of α-sarcoglycan protein present in HEK cells transfected with the D97G mutant of α-SG treated for 24 hours with either Compound E 10 μM, Compound H 15 μM, Compound I 10 μM, Compound Q 10 μM, Compound F 10 μM, Compound R 5 μM, Compound S 15 μM, Compound T 15 μM, Compound A 2 μM, or DMSO at 1‰ concentration, used as negative control, are shown. Cells expressing the wild type form of α-sarcoglycan have been used for comparison. At the end of treatments, cells were lysed and total proteins resolved by SDS-PAGE. Western blotting has been performed by using α-SG specific antibody and β-actin specific antibody, used to normalize loaded proteins. The expression of α-SG in different samples has been determined by densitometric analysis of western blotting experiments and indicated as percentage of the protein present in cells expressing the wild type form of α-sarcoglycan. […] The compounds tested induce the recovery of the D97G mutant that in some cases reached the level present in HEK cells expressing the wild type protein.

[2] = target: T2, R98H mutant of alpha-sarcoglycan (Homo sapiens, UniProt Q16586, R98H); test: Western blot rescue of R98H mutant of alpha-sarcoglycan in HEK293 cell model; assay type: cell-based; conditions: HEK293, 24 hours; for alpha-sarcoglycan protein level (western blot, densitometry), rescue of R98H mutant: A 2 μM
T2 construct: expressed in transfected cells; host or cells: HEK293
T2 sequence (Q16586 24-387 R98H): T1 sequence (Q16586 24-387 D97G) with G74D, R75H
Method: as §1
In FIG. 1 the result obtained by treating cells expressing the R98H mutant of α-SG for 24 hours with Compound C 5 μM, Compound B 10 μM, Compound E 10 μM, Compound F 10 μM, Compound A 2 μM, Compound D 10 μM are shown. At the end of treatments, cells were lysed and total proteins resolved by SDS-PAGE. Western blotting has been performed by using α-SG specific antibody and β-actin specific antibody, used to normalize loaded proteins (in FIG. 1, upper panel, a representative experiment is shown). The expression of α-SG in different samples has been determined by densitometric analysis of the western blotting experiments and indicated as percentage of the protein present in cells expressing the R98H mutant treated with DMSO (negative control).
In FIG. 4 the result obtained by treating cells expressing the R98H mutant of α-SG for 24 hours with either Compound H 15 μM, Compound I 10 μM, Compound T 15 μM, Compound A 2 μM, or DMSO at 1‰ concentration, used as negative control, are shown. Cells expressing the wild type form of α-sarcoglycan have been used for comparison. At the end of treatments, cells were lysed and total proteins resolved by SDS-PAGE. Western blotting has been performed by using α-SG specific antibody and β-actin specific antibody, used to normalize loaded proteins (in upper panel of FIG. 4, a representative experiment is shown). The expression of α-SG in different samples has been determined by densitometric analysis of the western blotting experiments and indicated as percentage of the protein present in cells expressing the wild type form of α-sarcoglycan. […] The compounds tested induced the recovery of the R98H mutant to levels that in some cases were even greater than those present in HEK cells expressing the wild type protein.
(§2) In FIG. 5 the result obtained by treating cells expressing the R98H mutant of α-SG for 24 hours with either increasing concentration of Compound R (1, 2.5, 5 μM) or DMSO at 1‰ concentration, used as negative control, are shown. Cells expressing the wild type form of α-sarcoglycan have been used for comparison. At the end of treatments, cells were lysed and total proteins resolved by SDS-PAGE. Western blotting has been performed by using α-SG specific antibody and β-actin specific antibody, used to normalize loaded proteins (in upper panel of FIG. 5, a representative experiment is shown). The expression of α-SG in different samples has been determined by densitometric analysis of western blotting experiments and indicated as percentage of the protein present in cells expressing the wild type form of α-sarcoglycan.
as §2, with “6” for “5”, “Q (5, 10 μM), increasing concentration of Compound S (10, 15” for “R (1, 2.5, 5”, “1% o” for “1‰”, “6,” for “5,”

[3] = FIG. 1, C 5 μM, B 10 μM, E 10 μM, F 10 μM, D 10 μM, relative to R98H cells treated with DMSO
[4] = FIG. 4, H 15 μM, I 10 μM, T 15 μM, relative to cells expressing wild type
[5] = FIG. 6, Compound Q 5, 10 μM, Compound S 10, 15 μM
[6] = FIG. 6, highest concentrations (Q 10 μM, S 15 μM)

| alpha-sarcoglycan protein level (western blot, densitometry), rescue of D97G mutant [1] | alpha-sarcoglycan protein level (western blot, densitometry), rescue of R98H mutant [2, 3] | alpha-sarcoglycan protein level (western blot, densitometry), rescue of R98H mutant [2, 4] | Compound | other results |
| --- | --- | --- | --- | --- |
| promote the rescue |  | promote the rescue | Cc1cc(Nc2ccc(Br)cc2)nc2ccccc12 [Compound I, N-(4-bromophenyl)-4-methylquinolin-2-amine] |  |
| promote the rescue |  |  | CC(=O)c1cccc(Nc2nc(-c3sc(NC(=O)c4ccccc4)nc3C)cs2)c1 [Compound Q, N-(2-(3-acetylphenylamino)-4′-methyl-4,5′-bithiazol-2′-yl)-benzamide] | alpha-sarcoglycan protein level, dose dependence of R98H mutant recovery [2, 5]: dose dependent recovery; alpha-sarcoglycan protein level of R98H mutant versus wild type protein [2, 6]: reached the level of the wild type protein |
| promote the rescue |  |  | C=Cc1ccc(-c2csc(Nc3ccccc3)n2)cc1 [Compound S, N-phenyl-4-(4-vinylphenyl)thiazol-2-amine] | alpha-sarcoglycan protein level, dose dependence of R98H mutant recovery [2, 5]: dose dependent recovery; alpha-sarcoglycan protein level of R98H mutant versus wild type protein [2, 6]: reached the level of the wild type protein |
| promote the rescue |  | promote the rescue | COc1ccc2nc(Nc3nc(=O)c(C)c(C)[nH]3)nc(C)c2c1 [Compound T, 2-(6-methoxy-4-methylquinazolin-2-ylamino)-5,6-dimethylpyrimidin-4(1H)-one] |  |

The remaining lines, values behind:

| Compound | alpha-sarcoglycan protein level (western blot, densitometry), rescue of D97G mutant [1] | alpha-sarcoglycan protein level (western blot, densitometry), rescue of R98H mutant [2, 3] | alpha-sarcoglycan protein level (western blot, densitometry), rescue of R98H mutant [2, 4] | other results |
| --- | --- | --- | --- | --- |
| COc1ccc(Cl)cc1Nc1nc(-c2sc(NC(=O)C(C)(C)C)nc2C)cs1 [Compound A, N-(2-(5-chloro-2-methoxyphenylamino)-4′-methyl-4,5′-bithiazol-2′-yl)pivalamide] | promote the rescue | promote the rescue | promote the rescue |  |
| COc1ccc(Cl)cc1Nc1nc(-c2sc(NC(=O)c3ccccc3)nc2C)cs1 [Compound E, N-[2-(5-Chloro-2-methoxy-phenylamino)-4′-methyl-[4,5′]bithiazolyl-2′-yl]-benzamide] | promote the rescue | promote the rescue |  |  |
| O=S(=O)(c1ccc(Cl)cc1)N1CCN(c2ccnc3cc(Cl)ccc23)CC1 [Compound F, 7-chloro-4-(4-(4-chlorophenylsulfonyl)piperazin-1-yl)quinoline] | promote the rescue | promote the rescue |  |  |
| Cc1cc(C)c2c(C)cc(Nc3ccccc3)nc2c1 [Compound H, 4,5,7-trimethyl-N-phenylquinolin-2-amine] | promote the rescue |  | promote the rescue |  |
| COc1ccccc1Nc1nc(-c2sc(NC(=O)c3ccccc3)nc2C)cs1 [Compound R, N-(2-(2-methoxyphenylamino)-4′-methyl-4,5′-bithiazol-2′-yl)-benzamide] | promote the rescue |  |  | alpha-sarcoglycan protein level, dose dependence of R98H mutant recovery ([2]; FIG. 5, Compound R 1, 2.5, 5 μM): dose dependent recovery; alpha-sarcoglycan protein level of R98H mutant versus wild type protein ([2]; FIG. 5, highest concentration (5 μM)): reached the level of the wild type protein |
